The data set deals with Artemia salina. Nature of the data set: Toxicity to Artemia salina after 24 hrs. The data set is classed as organism-based. To be noted: in vivo.

Experimental findings from ChEMBL document CHEMBL1147299, “12-epi-teuscordonin and other neoclerodanes from Teucrium bicolor” (J Nat Prod, 1989) are described below.

Bounds are passed on as bounds.

`C[C@@H]1C[C@@H](O)[C@@]23COC(=O)[C@@H]2CCC[C@@H]3[C@@]12C[C@@H](c1ccoc1)OC2=O`: the 50% lethal concentration (LC50) – broadly, the concentration that kills 50% of the test population – is > 500 ppm.
`CC(=O)OC[C@@]12[C@@H](OC(C)=O)C[C@@H](C)[C@]3(C[C@H](c4ccoc4)OC3=O)[C@H]1CCC[C@]21CO1` [MONTANIN C] had a 50% lethal concentration (LC50) of 66.4 ppm.
With `C[C@@H]1C[C@@H]2OC(=O)C3=C2[C@H](CCC3)[C@@]12C[C@@H](c1ccoc1)OC2=O` [TEUCVIN], the LC50 was > 500 ppm.
